Test results published in patent US5948808A, “Indole-3-carbinol, diindolylmethane and substituted analogs as antiestrogens” (The Texas A&M University System, priority 1997, dated 1999).
Read-outs that look alike come from different tables or passages of the source.

Tests used:
MCF-7 cells = assay: Effect of compounds on MCF-7 proliferation (E2-induced growth); assay type: cell-based; settings: Homo sapiens, MCF7, 144 h, with E2 (1 nM), 6 days
Description: MCF-7 cells (50,000 per well) were grown in six-well plates in DME-F12 medium as described in Liu, et al., Mol. Cell Endocrinol, 87:19-28, 1992. The cells were given fresh medium plus the compounds being tested every other day. After 6 days of treatment, the cells were harvested and counted with a Coulter counter (Coulter Electronics, Hialeah, Fla.) as described by Liu et al., J. Natl. Cancer Inst., 86. 1758-1765, 1994; Tiwari et al., J. Natl, Cancer Inst. 86, 126-131, 1994. In some cases, 17-β-estradiol (E2) (1×10^-9 M) was also added in combination with the IC3 or DIM analogs.
__________________________________________________________________________
EFFECTS OF DIFFERENT CONCENTRATIONS OF I3C
AND SUBSTITUTED ANALOGS ON THE GROWTH
OF MCF-7 CELLS IN THE PRESENCF OF E2
% of E2-Induced Response (Conc. of I3C Analogs)
EFFECTS OF DIFFERENT CONCENTRATIONS OF DIM
AND SUBSTITUTED ANALOGS ON THE
GROWTH OF MCF-7 CELLS IN THE PRESENCE OF E2
% of E2-Induced Response (Conc. of DIM Analogs)

[1] = Toxic endpoints (organ weights) in rats of the DMBA-induced mammary carcinoma model; assay type: in vivo, Sprague-Dawley rats; settings: 10 treatments by gavage 5 mg/kg every other day, sacrificed day 21, mean ± standard error; for Uterine Wet Weight: control 0.182 ± 0.016; for Liver Weight: control 4.07 ± 0.19
EROD = EROD in rats of the DMBA-induced mammary carcinoma model; assay type: in vivo, Sprague-Dawley rats; settings: 10 treatments by gavage 5 mg/kg every other day, sacrificed day 21; mean ± standard error
[2] = system: DMBA-induced mammary tumors; assay: Tumor growth in DMBA-induced mammary carcinoma model; assay type: in vivo, Sprague-Dawley rats; settings: 10 treatments by gavage 5 mg/kg every other day, sacrificed day 21; mean ± standard error
mammary tumors = settings: oral, 20 hours prior to DMBA; cited from earlier work
[3] = system: DMBA-induced mammary tumor; settings: dietary I3C; 20% Brussels sprouts; cited from earlier work
[4] = system: estrogen-regulated tumors; settings: cited from earlier work
[5] = read-out: % of E2-Induced Response (Conc. of I3C Analogs)
[6] = read-out: % of E2-Induced Response (Conc. of DIM Analogs)

Compound: Cc1c(CO)c2ccccc2n1C [1,2-Dimethyl-I3C]
- activity at 0.1 µM (MCF-7 cells; [5]): 98 ± 5.68%
- activity at 1 µM (MCF-7 cells; [5]): 94.4 ± 7.73%
- activity at 10 µM (MCF-7 cells; [5]): 65.9 ± 2.86%
- activity at 50 µM (MCF-7 cells; [5]): 0.35 ± 0.24%
- activity at 100 µM (MCF-7 cells; [5]): 0.42 ± 0.14%

Compound: Brc1ccc2[nH]cc(Cc3c[nH]c4ccc(Br)cc34)c2c1 [5-Bromo-DIM, 5,5'-dibromo-diindolylmethane]
- activity at 0.01 µM (MCF-7 cells; [6]): 99.03 ± 0.49%
- activity at 0.1 µM (MCF-7 cells; [6]): 106 ± 3.38%
- activity at 1 µM (MCF-7 cells; [6]): 75 ± 1.35%
- activity at 5 µM (MCF-7 cells; [6]): 9.92 ± 0.58%
- activity at 10 µM (MCF-7 cells; [6]): 0.3 ± 0.04%

Compound: OCc1c[nH]c2ccc(Br)cc12 [5-Bromo-I3C, 5-bromo-indole-3-carbinol]
- activity at 0.1 µM (MCF-7 cells; [5]): 96.3 ± 6.97%
- activity at 1 µM (MCF-7 cells; [5]): 97.3 ± 6.33%
- activity at 10 µM (MCF-7 cells; [5]): 94.4 ± 2.47%
- activity at 50 µM (MCF-7 cells; [5]): 59.6 ± 1.05%
- activity at 100 µM (MCF-7 cells; [5]): 14.9 ± 0.72%

Compound: Clc1ccc2[nH]cc(Cc3c[nH]c4ccc(Cl)cc34)c2c1 [5-Chloro-DIM, 5,5'-dichloro-diindolylmethane]
- activity at 0.01 µM (MCF-7 cells; [6]): 98.4 ± 11.2%
- activity at 0.1 µM (MCF-7 cells; [6]): 98.3 ± 8.34%
- activity at 1 µM (MCF-7 cells; [6]): 87.3 ± 5.98%
- activity at 5 µM (MCF-7 cells; [6]): 0.75 ± 0.1%
- activity at 10 µM (MCF-7 cells; [6]): 0.99 ± 0.27%

Compound: OCc1c[nH]c2ccc(Cl)cc12 [5-Chloro-I3C, 5-chloro-indole-3-carbinol]
- activity at 0.1 µM (MCF-7 cells; [5]): 94 ± 11.2%
- activity at 1 µM (MCF-7 cells; [5]): 92.4 ± 3.14%
- activity at 10 µM (MCF-7 cells; [5]): 82.2 ± 4.55%
- activity at 50 µM (MCF-7 cells; [5]): 29.8 ± 5.98%
- activity at 100 µM (MCF-7 cells; [5]): 1.02 ± 0.22%

Compound: Fc1ccc2[nH]cc(Cc3c[nH]c4ccc(F)cc34)c2c1 [5-Fluoro-DIM, 5,5'-difluoro-diindolylmethane]
- Uterine Wet Weight [1]: 0.208 ± 0.044 % body weight
- Liver Weight [1]: 4.30 ± 0.29 % body weight
- EROD (EROD): 157.6 ± 22.1 % Control
- activity at 0.01 µM (MCF-7 cells; [6]): 90.3 ± 2.5%
- activity at 0.1 µM (MCF-7 cells; [6]): 103 ± 2.63%
- activity at 1 µM (MCF-7 cells; [6]): 77.1 ± 3.51%
- activity at 5 µM (MCF-7 cells; [6]): 35.7 ± 5.13%
- activity at 10 µM (MCF-7 cells; [6]): 8.46 ± 1.17%
- Tumor Volume [2]: 35.8 ± 16.6 % Control
- Tumor Weight [2]: 45.0 ± 20.0 % Control

Compound: COc1ccc2[nH]cc(Cc3c[nH]c4ccc(OC)cc34)c2c1 [5-Methoxy-DIM, 5,5'-dimethoxy-diindolylmethane]
- Uterine Wet Weight [1]: 0.224 ± 0.034 % body weight
- Liver Weight [1]: 4.16 ± 0.23 % body weight
- EROD (EROD): 151.2 ± 43.4 % Control
- activity at 0.01 µM (MCF-7 cells; [6]): 87.2 ± 3.52%
- activity at 0.1 µM (MCF-7 cells; [6]): 89.4 ± 3.12%
- activity at 1 µM (MCF-7 cells; [6]): 69.4 ± 3.95%
- activity at 5 µM (MCF-7 cells; [6]): 37.1 ± 4.52%
- activity at 10 µM (MCF-7 cells; [6]): 11.4 ± 1.63%
- Tumor Volume [2]: 22.1 ± 4.4 % Control
- Tumor Weight [2]: 22.1 ± 4.4 % Control

Compound: COc1ccc2[nH]cc(CO)c2c1 [5-Methoxy-I3C, 5-methoxy-indole-3-carbinol]
- activity at 0.1 µM (MCF-7 cells; [5]): 87.6 ± 5.4%
- activity at 1 µM (MCF-7 cells; [5]): 78.4 ± 11.9%
- activity at 10 µM (MCF-7 cells; [5]): 58.9 ± 7.96%
- activity at 50 µM (MCF-7 cells; [5]): 2.97 ± 0.2%
- activity at 100 µM (MCF-7 cells; [5]): 0.61 ± 0.14%

Compound: Cc1ccc2[nH]cc(CO)c2c1 [5-Methyl-I3C, 5-methyl-indole-3-carbinol]
- activity at 0.1 µM (MCF-7 cells; [5]): 87.8 ± 11.1%
- activity at 1 µM (MCF-7 cells; [5]): 81.6 ± 10.8%
- activity at 10 µM (MCF-7 cells; [5]): 53 ± 4.24%
- activity at 50 µM (MCF-7 cells; [5]): 0.87 ± 0.11%
- activity at 100 µM (MCF-7 cells; [5]): 0.57 ± 0.2%

Compound: O=[N+]([O-])c1ccc2[nH]cc(CO)c2c1 [5-Nitro-I3C]
- activity at 0.1 µM (MCF-7 cells; [5]): 94.7 ± 2.05%
- activity at 1 µM (MCF-7 cells; [5]): 92.7 ± 3.89%
- activity at 10 µM (MCF-7 cells; [5]): 44.2 ± 3.34%
- activity at 50 µM (MCF-7 cells; [5]): 1.71 ± 0.06%
- activity at 100 µM (MCF-7 cells; [5]): 0.39 ± 0.06%

Compound: c1ccc2c(Cc3c[nH]c4ccccc34)c[nH]c2c1 [DIM, 3,3'diindolylmethane, reference compound]
- Uterine Wet Weight [1]: 0.184 ± 0.027 % body weight
- Liver Weight [1]: 3.87 ± 0.22 % body weight
- occurrence of mammary tumors (in words) (mammary tumors): inhibited the occurrence of mammary tumors
- EROD (EROD): 106.1 ± 22.4 % Control
- activity at 0.01 µM (MCF-7 cells; [6]): 107 ± 8.43%
- activity at 0.1 µM (MCF-7 cells; [6]): 97.3 ± 3.56%
- activity at 1 µM (MCF-7 cells; [6]): 77 ± 5.16%
- activity at 5 µM (MCF-7 cells; [6]): 22.5 ± 2.47%
- activity at 10 µM (MCF-7 cells; [6]): 6.84 ± 0.71%
- Tumor Volume [2]: 19.9 ± 5.8 % Control
- Tumor Weight [2]: 23.7 ± 6.0 % Control

Compound: OCc1c[nH]c2ccccc12 [I3C, indole 3-carbinol, reference compound]
- occurrence of mammary tumors (in words) (mammary tumors): inhibited the occurrence of mammary tumors
- activity at 0.1 µM (MCF-7 cells; [5]): 100 ± 5.7%
- activity at 1 µM (MCF-7 cells; [5]): 96.3 ± 3.23%
- activity at 10 µM (MCF-7 cells; [5]): 83.9 ± 2.46%
- activity at 50 µM (MCF-7 cells; [5]): 36.9 ± 0.65%
- activity at 100 µM (MCF-7 cells; [5]): 8.15 ± 1%
- DMBA-induced mammary tumor formation and progression (in words) [3]: inhibited DMBA-induced mammary tumor formation and progression
- formation or growth of estrogen-regulated tumors (in words) ([4]; rodent mammary, endometrium and uterus): inhibit formation or growth of estrogen-regulated tumors
- mammary carcinogenesis (in words) ([4]; rodent models): inhibits mammary carcinogenesis in rodent models

Compound: Cn1cc(Cc2cn(C)c3ccccc23)c2ccccc21 [N-Methyl-DIM, N,N'-dimethyl-diindolylmethane]
- activity at 0.01 µM (MCF-7 cells; [6]): 82.8 ± 10.8%
- activity at 0.1 µM (MCF-7 cells; [6]): 96.4 ± 2.94%
- activity at 1 µM (MCF-7 cells; [6]): 78.5 ± 3.03%
- activity at 5 µM (MCF-7 cells; [6]): 3.92 ± 0.49%
- activity at 10 µM (MCF-7 cells; [6]): 0.85 ± 0.12%

Compound: Cn1cc(CO)c2ccccc21 [N-Methyl-I3C, N-methyl-indole-3-carbinol]
- activity at 0.1 µM (MCF-7 cells; [5]): 95.6 ± 4.26%
- activity at 1 µM (MCF-7 cells; [5]): 96.2 ± 1.66%
- activity at 10 µM (MCF-7 cells; [5]): 47.8 ± 2.13%
- activity at 50 µM (MCF-7 cells; [5]): 14.4 ± 0.9%
- activity at 100 µM (MCF-7 cells; [5]): 3.91 ± 0.64%
